Measured values from the NIST ThermoML archive (doi:10.1016/j.jct.2012.09.012).

Test: molar heat capacity at constant pressure; xn = mol fraction of the nth substance listed
Conditions: 101 kPa, Liquid, Small sample (50 mg) DSC

CC1=CC[C@H]2C[C@@H]1C2(C)C [(S)-2-pinene] + C=C1CCC2CC1C2(C)C
molar heat capacity at constant pressure [J/K/mol]
Conditions | x1 = 0.1002 | x1 = 0.2041 | x1 = 0.2997 | x1 = 0.3922 | x1 = 0.5012 | x1 = 0.5907 | x1 = 0.7026 | x1 = 0.7987 | x1 = 0.9002 | x1 = 1
313.16 K | 249.31 | 250.67 | 250.67 | 252.03 | 250.67 | 249.31 | 250.67 | 252.03 | 253.4 | 250.67
318.16 K | 252.03 | 252.03 | 252.03 | 253.4 | 253.4 | 252.03 | 253.4 | 253.4 | 254.76 | 252.03
323.16 K | 256.12 | 254.76 | 256.12 | 256.12 | 254.76 | 254.76 | 256.12 | 254.76 | 256.12 | 256.12
328.22 K | 257.48 | 256.12 | 257.48 | 258.84 | 256.12 | 257.48 | 258.84 | 256.12 | 258.84 | 257.48
333.22 K | 260.21 | 258.84 | 258.84 | 260.21 | 258.84 | 261.57 | 260.21 | 257.48 | 260.21 | 260.21
338.19 K | 264.29 | 261.57 | 262.93 | 262.93 | 262.93 | 262.93 | 262.93 | 261.57 | 262.93 | 264.29
343.18 K | 267.02 | 265.66 | 267.02 | 265.66 | 265.66 | 267.02 | 264.29 | 264.29 | 265.66 | 267.02
348.15 K | 269.74 | 268.38 | 269.74 | 268.38 | 269.74 | 268.38 | 267.02 | 267.02 | 268.38 | 269.74
353.18 K | 273.83 | 272.47 | 272.47 | 271.11 | 272.47 | 272.47 | 269.74 | 269.74 | 269.74 | 272.47
358.15 K | 275.19 | 273.83 | 273.83 | 273.83 | 275.19 | 275.19 | 272.47 | 271.11 | 272.47 | 275.19
363.18 K | 277.92 | 276.56 | 276.56 | 276.56 | 277.92 | 277.92 | 273.83 | 275.19 | 275.19 | 277.92
368.17 K | 279.28 | 279.28 | 279.28 | 279.28 | 280.64 | 280.64 | 276.56 | 276.56 | 277.92 | 279.28
373.21 K | 283.37 | 282 | 282 | 282 | 282 | 282 | 279.28 | 280.64 | 279.28 | 282
378.2 K | 284.73 | 283.37 | 284.73 | 284.73 | 284.73 | 284.73 | 280.64 | 282 | 282 | 284.73
383.17 K | 287.45 | 286.09 | 287.45 | 287.45 | 286.09 | 287.45 | 284.73 | 283.37 | 284.73 | 287.45
388.2 K | 291.54 | 288.82 | 290.18 | 291.54 | 290.18 | 290.18 | 288.82 | 286.09 | 287.45 | 291.54
393.17 K | 292.9 | 291.54 | 292.9 | 294.27 | 292.9 | 291.54 | 291.54 | 288.82 | 288.82 | 292.9
398.2 K | 294.27 | 295.63 | 294.27 | 296.99 | 295.63 | 294.27 | 294.27 | 292.9 | 292.9 | 294.27
403.19 K | 296.99 | 298.35 | 296.99 | 299.71 | 298.35 | 296.99 | 295.63 | 295.63 | 294.27 | 296.99
408.16 K | 299.71 | 301.08 | 299.71 | 303.8 | 302.44 | 299.71 | 299.71 | 298.35 | 296.99 | 299.71
413.19 K | 301.08 | 302.44 | 301.08 | 305.16 | 305.16 | 301.08 | 301.08 | 299.71 | 299.71 | 301.08
418.19 K | 303.8 | 305.16 | 303.8 | 306.53 | 306.53 | 302.44 | 303.8 | 303.8 | 302.44 | 303.8
